Laboratory results published in publication PMC11063903, “Engineering a human P2X2 receptor with altered ligand selectivity in yeast” (The Journal of Biological Chemistry, 2024).
Changes are numbered by the printed parent chain.

Key:
P2X2 F301W+A304W = target: T1, P2X2 F301W+A304W (Homo sapiens, UniProt Q9UBL9, A304W/F301W); assay: Fast GCaMP-mScarletI assay in yeast, P2X2 F301W+A304W; format: cell-based; conditions: for Bottom, best fit value / Hillslope, best fit value / Top, best fit value: four-parameter logistic fit of ΔF/ΔT
T1 construct: expressed in transfected cells; host or cells: S. cerevisiae BY4741 background
T1 sequence (Q9UBL9 1-471 F301W/A304W): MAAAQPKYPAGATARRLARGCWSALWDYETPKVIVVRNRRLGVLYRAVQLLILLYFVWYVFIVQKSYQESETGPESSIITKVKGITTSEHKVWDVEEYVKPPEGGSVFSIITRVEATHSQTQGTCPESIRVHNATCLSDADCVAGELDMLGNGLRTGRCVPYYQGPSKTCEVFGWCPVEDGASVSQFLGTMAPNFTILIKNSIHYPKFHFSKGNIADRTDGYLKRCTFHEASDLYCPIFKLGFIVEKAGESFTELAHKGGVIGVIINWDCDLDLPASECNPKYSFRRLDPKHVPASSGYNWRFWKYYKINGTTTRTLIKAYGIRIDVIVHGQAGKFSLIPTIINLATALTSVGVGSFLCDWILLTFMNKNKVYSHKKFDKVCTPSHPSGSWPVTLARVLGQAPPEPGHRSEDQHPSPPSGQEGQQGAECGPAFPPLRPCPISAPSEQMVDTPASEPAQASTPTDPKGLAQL
Experimental: (§1) Figure 4 Unnatural-ligand gating in LBD libraries.A, WT P2X2 was tested with 1 mM ATP, 500 μM AMP-PNP, and compared to ATP with the broken receptor (K81C K83C) control with 1 mM ATP in the fast GCaMP-mScarletI assay (n = 3). […] B, heat map summarizing AMP-PNP signaling (ΔF/ΔT, fast GCaMP-mScarletI assay) in the site-saturation libraries (n = 2–3). All values are normalized to WT P2X2 with saturating amounts of AMP-PNP (500 μM) and therefore represent low signal (ΔF/ΔT) compared to the ATP ligand. C, F301W, F303Y, and A304W were combinatorially combined and tested against the WT, K81C K83C broken P2X2, and the single mutant clones with both ATP (1 mM, black) and AMP-PNP (500 μM, pink). […] Values here represent signal onset and are not normalized to a positive control (n = 2–5). D–K, dose response of each P2X variant with both ATP (black) and AMP-PNP (pink) in the fast GCaMP-mScarletI assay (n = 3). Statistics were performed via one-way ANOVA with Dunnett’s multiple comparisons with to the “broken” K81C K83C negative control. ∗ represents a p value ≤0.05, ∗∗ is p ≤ 0.01, and ∗∗∗ is p ≤ 0.001.
The combined mutations were synergistic, with F303Y + A304W having a predicted additive effect of ca. Ten-fold, relative to the 73-fold seen.
(§2) GCaMP assays were performed as follows. P2X2 GCaMP strains were designed with a bi-cistronic reporter, in which the GCaMP protein was followed by a 2A peptide and a mScarletI reporter ([53]). The co-translated mScarletI was designed to act as a control for plasmid loss, GCaMP breakage via nonsense mutation, and contamination. […] P2X2-GCaMP strains were cultured and induced as previously described. Samples were induced for 24 h to allow for the accumulation of the mature GCaMP protein. Cells were washed three times in 0.1 M MES/Tris buffer and resuspended with MES/Tris with supplemental calcium. Cells were loaded onto a black, clear bottom microplate and imaged on a FlexStation3 plate reader. Samples were imaged in “flex” mode. Samples were imaged for 48 s at an interval of 1.6 s. Fluorescence was measured with an excitation at 485 nm, and emission 525 nm. At the 21 s mark, 100 μl ligand solution was transferred to the cells. For strains with mScarlet, fluorescence was read with excitation 570 nm/emission 610 nm. Slopes were calculated from the last 6 points of measurement and were normalized to the positive control samples. Any replicate in which the mScarlet value was measured to be over 2 standard deviations less than the mean for that set was discarded from further analysis.
(§3) For multiple comparisons in the site-saturation screening data, One-way ANOVA with Dunnett’s multiple comparisons test was performed where every sample was compared to the “broken” negative control. Significance was plotted where ∗ represents a p value ≤0.05, ∗∗ is p ≤0.01, and ∗∗∗ is p ≤0.001. Dose–response curves were fit with nonlinear regression software using a four-parameter logistic curve. All statistics were calculated and plotted in Graphpad Prism software.

P2X2 A304W = target: T2, P2X2 A304W (Homo sapiens, UniProt Q9UBL9, A304W); assay: Fast GCaMP-mScarletI assay in yeast, P2X2 A304W; format: cell-based; conditions: for Bottom, best fit value / Hillslope, best fit value / Top, best fit value: four-parameter logistic fit of ΔF/ΔT; for Bottom, best fit value / Hillslope, best fit value / Top, best fit value / EC50: n = 3; for EC50: four-parameter logistic fit, unit inferred, unit M, read-out: EC50, best fit value
T2 construct: expressed in transfected cells; host or cells: S. cerevisiae BY4741 background
T2 sequence (Q9UBL9 1-471 A304W): T1 sequence (Q9UBL9 1-471 F301W/A304W) with W301F
Experimental: as §1
Given that the yeast-based screen seemed to recapitulate important structural and functional features of human ion channel function, we hypothesized that it might be possible to engineer new P2X2 functionalities in yeast, including new ligand specificity. […] We screened our 133-member library in the presence of 500 μM AMP-PNP (Fig. S7). While the AMP-PNP signal was uniformly low, three substitutions (F301W, F303Y, and A304W) increased signaling 2.5 to 2.8 times relative to the negative control receptor (Figs. 4B, and S7, D, F, and G). To gain a more complete view of the properties of these mutants, dose–response curves were generated with ATP and AMP-PNP (Fig. 4, D–G, and Table S2).
as §2, §3

Compound	Bottom, best fit value (P2X2 F301W+A304W; n = 3)	Hillslope, best fit value (P2X2 F301W+A304W; n = 3)	Top, best fit value (P2X2 F301W+A304W; n = 3)	EC50 (P2X2 F301W+A304W; four-parameter logistic fit, n = 3, unit inferred, unit M, read-out: EC50, best fit value) [µM]	Bottom, best fit value (P2X2 A304W)	Hillslope, best fit value (P2X2 A304W)	Top, best fit value (P2X2 A304W)	EC50 (P2X2 A304W) [µM]	improvement compared to the WT channel (rate of signal onset ΔF/ΔT) (P2X2 F301W+A304W; at 500 μM AMP-PNP) [fold]	activity compared to the wild-type (P2X2 A304W; AMP-PNP dose-response, high ligand concentrations) [fold]
Nc1ncnc2c1ncn2[C@@H]1O[C@H](COP(=O)(O)OP(=O)(O)OP(=O)(O)O)[C@@H](O)[C@H]1O [ATP]	-5.28	1.07	207.50	20.7	0.89	2.41	67.64	16.6		
Nc1ncnc2c1ncn2[C@@H]1O[C@H](COP(=O)(O)OP(=O)(O)NP(=O)(O)O)[C@@H](O)[C@H]1O [AMP-PNP]	-0.492	1.649	81.84		-0.1131	1.702	50.72	621	24	55.87
